Source: patent US12552846B2, “Modified BCL9 mimetic peptides” (Sapience Therapeutics, Inc., priority 2019, dated 2026)
Square brackets hold non-standard residues; d marks the D form. Peptide text beside a SMILES is read from it.

system: HL60 promyelocytic leukemia cells; experiment: Cytotoxicity assay in HL60 cells (Annexin V FITC / PI flow cytometry); format: cell-based; settings: 48 hours, 0-80 μM, % Viability (Annexin V low, PI low)
Procedure: We examined the cytotoxicity of peptides BCL-26 and BCL-27 using an assay in HL60 promyelocytic leukemia cells. HL60 PML suspension cells were set at a density of 3.5×10^3 cells/well in 150 μL of RPMI+1.5% fetal bovine serum (FBS) in a 96 well dish. BCL-26 or BCL-27, reconstituted at a concentration of 10 mg/mL in 20 mM His, pH 7.5, was added to each well at a volume of 50 μL to a final concentration range of 0-80 μM. Cells were incubated with peptide for 48 hours at 37° C. Cell viability was quantified by flow cytometry using abcam Annexin V FITC apoptosis detection kit. Briefly, cells were washed with PBS and resuspended in 1× assay buffer containing Annexin V FITC and propidium iodide (PI). Annexin V detects apoptotic cells, and PI stains dead cells. After staining, apoptotic cells show green fluorescence, dead cells show red and green fluorescence, and live cells show little or no fluorescence. Cells were selected for analysis based on forward scatter (FSC) vs. side scatter (SSC), and analyzed by BD Accuri C6 Plus flow cytometer to detect Annexin V-FITC binding (Ex=488 nm; Em=530 nm) using FITC signal detector and PI staining by the phycoerythrnn emission signal detector. Percentage of Annexin V^low and PI^low were quantified and presented as % Viability.
We examined the cytotoxicity of additional retro inverso and mixed chirality BCL9 mimetic peptides in HL60 cells using the assay described above.

| SMILES | EC50 [nM] |
| --- | --- |
| CC(C)C[C@@H](NC(=O)[C@@H](Cc1c[nH]c2ccccc12)NC(=O)[C@@H](N)Cc1c[nH]c2ccccc12)C(=O)N[C@H](C)C(=O)N[C@H](CCCNC(=N)N)C(=O)N[C@H](CCC(N)=O)C(=O)N[C@H](CC(C)C)C(=O)N[C@H](CCC(=O)O)C(=O)N[C@H](CCCNC(=N)N)C(=O)N[C@H](CC(C)C)C(=O)N[C@H](CCCNC(=N)N)C(=O)N[C@H](CCCNC(=N)N)C(=O)N[C@H](CC(C)C)C(=O)N[C@H](C)C(=O)N[C@H](CCCCN)C(=O)N[C@H](CC(C)C)C(=O)N[C@@H](C(=O)N1CCC[C@@H]1C(=O)N[C@@H](C(=O)O)C(C)C)[C@H](C)O [BCL-97] (H-W[dW][dL][dA][dR][dQ][dL][dE][dR][dL][dR][dR][dL][dA][dK][dL][dT][dP][dV]-OH; N-terminus and C-terminus assumed) | < 2000 |
| CC(C)C[C@@H](NC(=O)[C@@H](Cc1c[nH]c2ccccc12)NC(=O)[C@@H](N)Cc1c[nH]c2ccccc12)C(=O)N[C@H](C)C(=O)N[C@H](CCCNC(=N)N)C(=O)N[C@H](CCC(N)=O)C(=O)N[C@H](CC(C)C)C(=O)N[C@H](CCC(=O)O)C(=O)N[C@H](CCCNC(=N)N)C(=O)N[C@H](CC(C)C)C(=O)N[C@H](C)C(=O)N[C@H](CCCNC(=N)N)C(=O)N[C@H](CC(C)C)C(=O)N[C@H](C)C(=O)N[C@H](CCCCN)C(=O)N[C@H](CC(C)C)C(=O)N[C@@H](C(=O)N1CCC[C@@H]1C(=O)N[C@@H](C(=O)O)C(C)C)[C@H](C)O [BCL-98] (H-W[dW][dL][dA][dR][dQ][dL][dE][dR][dL][dA][dR][dL][dA][dK][dL][dT][dP][dV]-OH; N-terminus and C-terminus assumed) | 2000 to 10000 |
| CC(C)C[C@@H](NC(=O)[C@@H](Cc1c[nH]c2ccccc12)NC(=O)[C@@H](N)Cc1ccccc1)C(=O)N[C@H](C)C(=O)N[C@H](CCCNC(=N)N)C(=O)N[C@H](CCC(N)=O)C(=O)N[C@H](CC(C)C)C(=O)N[C@H](C)C(=O)N[C@H](CCCNC(=N)N)C(=O)N[C@H](CC(C)C)C(=O)N[C@H](C)C(=O)N[C@H](CCC(N)=O)C(=O)N[C@H](CC(C)C)C(=O)N[C@H](C)C(=O)N[C@H](CCCCN)C(=O)N[C@H](CC(C)C)C(=O)N[C@@H](C(=O)N1CCC[C@@H]1C(=O)N[C@@H](C(=O)O)C(C)C)[C@H](C)O [BCL-99] (H-F[dW][dL][dA][dR][dQ][dL][dA][dR][dL][dA][dQ][dL][dA][dK][dL][dT][dP][dV]-OH; N-terminus and C-terminus assumed) | 2000 to 10000 |
| CC(C)C[C@@H](NC(=O)[C@@H](Cc1c[nH]c2ccccc12)NC(=O)[C@@H](N)CCCNC(=N)N)C(=O)N[C@H](C)C(=O)N[C@H](CCCNC(=N)N)C(=O)N[C@H](CCC(N)=O)C(=O)N[C@H](CC(C)C)C(=O)N[C@H](C)C(=O)N[C@H](CCCNC(=N)N)C(=O)N[C@H](CC(C)C)C(=O)N[C@H](C)C(=O)N[C@H](CCC(N)=O)C(=O)N[C@H](CC(C)C)C(=O)N[C@H](C)C(=O)N[C@H](CCCCN)C(=O)N[C@H](CC(C)C)C(=O)N[C@@H](C(=O)N1CCC[C@@H]1C(=O)N[C@@H](C(=O)O)C(C)C)[C@H](C)O [BCL-100] (H-R[dW][dL][dA][dR][dQ][dL][dA][dR][dL][dA][dQ][dL][dA][dK][dL][dT][dP][dV]-OH; N-terminus and C-terminus assumed) | < 2000 |
| CC(C)C[C@@H](NC(=O)[C@@H](Cc1c[nH]c2ccccc12)NC(=O)[C@H](Cc1c[nH]c2ccccc12)NC(=O)[C@H](N)Cc1ccccc1)C(=O)N[C@H](C)C(=O)N[C@H](CCCNC(=N)N)C(=O)N[C@H](CCC(N)=O)C(=O)N[C@H](CC(C)C)C(=O)N[C@H](C)C(=O)N[C@H](CCCNC(=N)N)C(=O)N[C@H](CC(C)C)C(=O)N[C@H](C)C(=O)N[C@H](CCC(N)=O)C(=O)N[C@H](CC(C)C)C(=O)N[C@H](C)C(=O)N[C@H](CCCCN)C(=O)N[C@H](CC(C)C)C(=O)N[C@@H](C(=O)N1CCC[C@@H]1C(=O)N[C@@H](C(=O)O)C(C)C)[C@H](C)O [BCL-101] (H-[dF]W[dW][dL][dA][dR][dQ][dL][dA][dR][dL][dA][dQ][dL][dA][dK][dL][dT][dP][dV]-OH; N-terminus and C-terminus assumed) | < 2000 |
| CC(C)C[C@@H](NC(=O)[C@@H](CCCNC(=N)N)NC(=O)[C@@H](C)NC(=O)[C@@H](CC(C)C)NC(=O)[C@@H](CCC(N)=O)NC(=O)[C@@H](CCCNC(=N)N)NC(=O)[C@@H](CC(C)C)NC(=O)[C@@H](CC(C)C)NC(=O)[C@@H](Cc1c[nH]c2ccccc12)NC(=O)[C@H](N)Cc1c[nH]c2ccccc12)C(=O)N[C@H](C)C(=O)N[C@H](CCC(N)=O)C(=O)N[C@H](CC(C)C)C(=O)N[C@H](C)C(=O)N[C@H](CCCCN)C(=O)N[C@H](CC(C)C)C(=O)N[C@@H](C(=O)N1CCC[C@@H]1C(=O)N[C@@H](C(=O)O)C(C)C)[C@H](C)O [BCL-128] (H-[dW][dW][dL][dL][dR][dQ][dL][dA][dR][dL][dA][dQ][dL][dA][dK][dL][dT][dP][dV]-OH; N-terminus and C-terminus assumed) | < 2000 |
| CC(C)C[C@@H](NC(=O)[C@@H](Cc1c[nH]c2ccccc12)NC(=O)[C@H](CCCNC(=N)N)NC(=O)[C@H](N)Cc1ccccc1)C(=O)N[C@H](C)C(=O)N[C@H](CCCNC(=N)N)C(=O)N[C@H](CCC(N)=O)C(=O)N[C@H](CC(C)C)C(=O)N[C@H](C)C(=O)N[C@H](CCCNC(=N)N)C(=O)N[C@H](CC(C)C)C(=O)N[C@H](C)C(=O)N[C@H](CCC(N)=O)C(=O)N[C@H](CC(C)C)C(=O)N[C@H](C)C(=O)N[C@H](CCCCN)C(=O)N[C@H](CC(C)C)C(=O)N[C@@H](C(=O)N1CCC[C@@H]1C(=O)N[C@@H](C(=O)O)C(C)C)[C@H](C)O [BCL-129] (H-[dF]R[dW][dL][dA][dR][dQ][dL][dA][dR][dL][dA][dQ][dL][dA][dK][dL][dT][dP][dV]-OH; N-terminus and C-terminus assumed) | < 2000 |
| CC(C)C[C@@H](NC(=O)[C@@H](CCCNC(=N)N)NC(=O)[C@@H](C)NC(=O)[C@@H](CC(C)C)NC(=O)[C@@H](CCC(N)=O)NC(=O)[C@@H](CCCNC(=N)N)NC(=O)[C@H](NC(=O)[C@@H](CC(C)C)NC(=O)[C@@H](Cc1c[nH]c2ccccc12)NC(=O)[C@H](CCCNC(=N)N)NC(=O)[C@H](N)Cc1ccccc1)C(C)C)C(=O)N[C@H](C)C(=O)N[C@H](CCC(N)=O)C(=O)N[C@H](CC(C)C)C(=O)N[C@H](C)C(=O)N[C@H](CCCCN)C(=O)N[C@H](CC(C)C)C(=O)N[C@@H](C(=O)N1CCC[C@@H]1C(=O)N[C@@H](C(=O)O)C(C)C)[C@H](C)O [BCL-130] (H-[dF]R[dW][dL][dV][dR][dQ][dL][dA][dR][dL][dA][dQ][dL][dA][dK][dL][dT][dP][dV]-OH; N-terminus and C-terminus assumed) | < 2000 |
| CC(C)C[C@@H](NC(=O)[C@@H](CCCNC(=N)N)NC(=O)[C@@H](C)NC(=O)[C@@H](CC(C)C)NC(=O)[C@@H](CCC(N)=O)NC(=O)[C@@H](CCCNC(=N)N)NC(=O)[C@H](NC(=O)[C@@H](CC(C)C)NC(=O)[C@@H](Cc1c[nH]c2ccccc12)NC(=O)[C@H](Cc1c[nH]c2ccccc12)NC(=O)[C@H](N)Cc1ccccc1)C(C)C)C(=O)N[C@H](C)C(=O)N[C@H](CCC(N)=O)C(=O)N[C@H](CC(C)C)C(=O)N[C@H](C)C(=O)N[C@H](CCCCN)C(=O)N[C@H](CC(C)C)C(=O)N[C@@H](C(=O)N1CCC[C@@H]1C(=O)N[C@@H](C(=O)O)C(C)C)[C@H](C)O [BCL-131] (H-[dF]W[dW][dL][dV][dR][dQ][dL][dA][dR][dL][dA][dQ][dL][dA][dK][dL][dT][dP][dV]-OH; N-terminus and C-terminus assumed) | < 2000 |
